Test: xn = mol fraction of the nth substance listed
Settings: 101 kPa, Liquid

OCCO [1,2-ethanediol] + NCCN
x2 = 0
Settings | mass density [kg/m3] | viscosity [mPa·s]
298.15 K | – | 16.8
303.15 K | 1105.8 | 13.4
308.15 K | – | 11.33

NCCN [ethane-1,2-diamine] + OCCO
Settings | mass density, 298.15 K [kg/m3] | mass density, 303.15 K [kg/m3] | mass density, 308.15 K [kg/m3] | viscosity, 298.15 K [mPa·s] | viscosity, 303.15 K [mPa·s] | viscosity, 308.15 K [mPa·s]
x1 = 0.1027 | 1096.6 | 1089.8 | 1084.4 | 22.28 | 17.6 | 14.05
x1 = 0.1541 | 1086.6 | 1080.9 | 1073.8 | 25.54 | 20.56 | 16.93
x1 = 0.2052 | 1078.4 | 1072.4 | 1062.4 | 28.37 | 22.44 | 18.21
x1 = 0.2561 | 1068.5 | 1062.2 | 1053.8 | 30.73 | 23.15 | 19.28
x1 = 0.3066 | 1061.4 | 1053.5 | 1042.9 | 31.46 | 23.66 | 19.2
x1 = 0.3568 | 1051 | 1042.8 | 1033.8 | 30.7 | 22.85 | 18.5
x1 = 0.4078 | 1040.4 | 1034.8 | 1026.6 | 28.32 | 21.31 | 17
x1 = 0.508 | 1018.5 | 1013.9 | 1007.2 | 20.17 | 15.18 | 11.89
x1 = 0.5579 | 1006.6 | 1000.7 | 994.7 | 16.06 | 12.27 | 8.772
x1 = 0.6065 | 995.4 | 988.3 | 981.8 | 12.51 | 9.748 | 6.254
x1 = 0.6573 | 983.1 | 976.2 | 968.7 | 9.028 | 7.157 | 4.674
x1 = 0.7071 | 970.1 | 964.5 | 956.1 | 6.882 | 5.681 | 4.008
x1 = 0.756 | 957.3 | 951.7 | 944.4 | 5.154 | 4.177 | 3.547
x1 = 0.8051 | 946.2 | 938.8 | 931.7 | 3.787 | 3.154 | 2.683
x1 = 0.8542 | 933.4 | 924.9 | 917.5 | 3.199 | 2.552 | 2.128
x1 = 0.9003 | 919.1 | 913.4 | 907.2 | 2.273 | 1.92 | 1.713
x1 = 0.9438 | 908.8 | 903.4 | 897.5 | 1.8 | 1.561 | 1.422
x1 = 1 | 894.5 | 890.8 | 885.6 | 1.276 | 1.211 | 1.107

Source: the NIST ThermoML archive (doi:10.1021/je100290a)
